Source: the NIST ThermoML archive (doi:10.1016/j.jct.2015.09.036)

Columns and labels:
[1] = 303.15 K, 100 kPa, Liquid; for viscosity: Capillary tube (Ostwald / Ubbelohde) method; for speed of sound: Frequency=2 MHz, Linear variable-path acoustic interferometer; for mass density: Pycnometric method
[2] = xn = mol fraction of the nth substance listed; settings: 303.15 K, 100 kPa, Liquid; for viscosity: Capillary tube (Ostwald / Ubbelohde) method; for speed of sound: Frequency=2 MHz, Linear variable-path acoustic interferometer; for mass density: Pycnometric method

CCCCC(CC)COP(=O)(O)OCC(CC)CCCC (configuration not stated) [bis(2-ethylhexyl) hydrogen phosphate]
[1]
Settings | mass density [kg/m3] | speed of sound [m/s] | viscosity [mPa·s]
– | 961.3 | 1293 | 19.29

CCCCC(CC)COP(=O)(O)OCC(CC)CCCC (configuration not stated) [bis(2-ethylhexyl) hydrogen phosphate] + Cc1ccccc1
[2]
Settings | mass density [kg/m3] | speed of sound [m/s] | viscosity [mPa·s]
x1 = 0.0896 | 884.9 | 1283.7 | 0.722
x1 = 0.1624 | 902.1 | 1284.5 | 0.907
x1 = 0.2077 | 910.5 | 1285.1 | 1.086
x1 = 0.2898 | 923.1 | 1286 | 1.576
x1 = 0.3279 | 928.8 | 1286.6 | 1.914
x1 = 0.4205 | 937.6 | 1287.4 | 3.098
x1 = 0.5082 | 944.5 | 1288.2 | 4.679
x1 = 0.5903 | 949.3 | 1289 | 6.432
x1 = 0.6814 | 953.3 | 1289.9 | 8.931
x1 = 0.7388 | 955.2 | 1290.5 | 10.84
x1 = 0.8105 | 957.1 | 1291.2 | 13.17
x1 = 0.8876 | 958.8 | 1291.9 | 15.68
x1 = 0.9427 | 960.1 | 1292.5 | 17.43
x1 = 1 | 961.3 | 1293 | 19.29

CCCCC(CC)COP(=O)(O)OCC(CC)CCCC (configuration not stated) [bis(2-ethylhexyl) hydrogen phosphate] + Clc1ccccc1
[2]
Settings | mass density [kg/m3] | speed of sound [m/s] | viscosity [mPa·s]
x1 = 0.0568 | 1075.2 | 1253.2 | 0.917
x1 = 0.1474 | 1051.9 | 1255.5 | 1.535
x1 = 0.2143 | 1038.4 | 1257.7 | 1.859
x1 = 0.3498 | 1017.9 | 1262.8 | 2.804
x1 = 0.4357 | 1007.6 | 1266.4 | 3.777
x1 = 0.4788 | 1002.9 | 1268.4 | 4.502
x1 = 0.5322 | 997.1 | 1270.8 | 5.526
x1 = 0.6285 | 987.8 | 1275.4 | 7.879
x1 = 0.7146 | 980.4 | 1279.5 | 10.49
x1 = 0.7704 | 975.8 | 1282.2 | 12.21
x1 = 0.8433 | 970.4 | 1285.7 | 14.56
x1 = 0.8789 | 968 | 1287.3 | 15.86
x1 = 0.9501 | 963.8 | 1290.8 | 17.84
x1 = 1 | 961.3 | 1293 | 19.29

CCCCC(CC)COP(=O)(O)OCC(CC)CCCC (configuration not stated) [bis(2-ethylhexyl) hydrogen phosphate] + O=[N+]([O-])c1ccccc1
[2]
Settings | mass density [kg/m3] | speed of sound [m/s] | viscosity [mPa·s]
x1 = 0.0912 | 1139 | 1429.5 | 2.409
x1 = 0.1743 | 1104.1 | 1415.6 | 2.925
x1 = 0.2624 | 1075.4 | 1401.5 | 3.319
x1 = 0.3698 | 1048.6 | 1385.2 | 4.274
x1 = 0.4211 | 1038.1 | 1377.5 | 4.689
x1 = 0.4779 | 1027.1 | 1369.1 | 5.585
x1 = 0.5326 | 1017.4 | 1361.1 | 6.687
x1 = 0.6102 | 1004.6 | 1349.8 | 8.662
x1 = 0.6933 | 992.8 | 1337.6 | 10.95
x1 = 0.7299 | 988.1 | 1332.2 | 11.91
x1 = 0.7867 | 981.4 | 1323.9 | 13.51
x1 = 0.8598 | 973.6 | 1313.2 | 15.51
x1 = 0.9387 | 966.2 | 1301.9 | 17.75
x1 = 1 | 961.3 | 1293 | 19.29

Clc1ccccc1 [chlorobenzene]
[1]
Settings | mass density [kg/m3] | speed of sound [m/s] | viscosity [mPa·s]
– | 1095.2 | 1251.8 | 0.724

Clc1ccccc1 [chlorobenzene] + CCCCC(CC)COP(=O)(O)OCC(CC)CCCC
[2], x2 = 0
Settings | mass density [kg/m3] | speed of sound [m/s] | viscosity [mPa·s]
– | 1095.2 | 1251.8 | 0.724

O=[N+]([O-])c1ccccc1 [nitrobenzene]
[1]
Settings | mass density [kg/m3] | speed of sound [m/s] | viscosity [mPa·s]
– | 1193.6 | 1445.6 | 1.611

O=[N+]([O-])c1ccccc1 [nitrobenzene] + CCCCC(CC)COP(=O)(O)OCC(CC)CCCC
[2], x2 = 0
Settings | mass density [kg/m3] | speed of sound [m/s] | viscosity [mPa·s]
– | 1193.6 | 1445.6 | 1.611

Cc1ccccc1 [toluene]
[1]
Settings | mass density [kg/m3] | speed of sound [m/s] | viscosity [mPa·s]
– | 856.2 | 1282.6 | 0.528

Cc1ccccc1 [toluene] + CCCCC(CC)COP(=O)(O)OCC(CC)CCCC
[2], x2 = 0
Settings | mass density [kg/m3] | speed of sound [m/s] | viscosity [mPa·s]
– | 856.2 | 1282.6 | 0.528
